Patent US10053435B2, “Furoxan compound, and manufacturing method for same” (NATIONAL UNIVERSITY CORPORATION KOBE UNIVERSITY, priority 2015, dated 2018)

Assay: Nitric oxide-releasing ability (Griess reagent, with L-cysteine in phosphate buffer)
Settings: for Nitric oxide-releasing rate: 0.1 mM furoxan compound, 5 mM L-cysteine, 50 mM phosphate buffer pH 7.4, 37° C., 1 hour, one molecule of furoxan taken to release one molecule of nitric oxide; for nitric oxide-releasing ability (in words): conclusion from Table 1; for 3 - X/4 - X (NO-releasing rate of 3-halofuroxan/NO-releasing rate of 4-halofuroxan): ratio of the rates of the 3-halo and 4-halo isomers, same conditions as the releasing rate
Description: The ability to release nitric oxide on each of (4-fluoro-3-(4-methylphenyl)furoxan, 3-fluoro-4-(4-methylphenyl)furoxan, 4-chloro-3-(4-methylphenyl)furoxan, and 3-chloro-4-(4-methylphenyl)furoxan was evaluated by the following method.
Each furoxan compound and L-cysteine were dissolved in 50 mM phosphate buffer (pH 7.4) to have a concentration of 0.1 mM and 5 mM, respectively, thereby to prepare a solution with a total volume of 6 mL. After stirring the solution at 37° C. for 1 hour, 3 mL of the solution was added to a light absorption cell and 250 μL of Griess reagent was added. After being left to stand at room temperature for 10 minutes, the absorbance was measured. The nitric oxide-releasing rate was obtained from a calibration curve prepared in advance using a sodium nitrite solution.

## Cc1ccc(-c2no[n+]([O-])c2F)cc1 [3-Fluoro compound, 3-fluoro-4-(4-methylphenyl)furoxan]
  Nitric oxide-releasing rate: 36.8%
  nitric oxide-releasing ability (in words): extremely high nitric oxide-releasing ability
3-fluoro versus 3-chloro compound, same conditions
  nitric oxide-releasing rate compared to that of the 3-chlorofuroxan compound: twice or more

## Cc1ccc(-c2no[n+]([O-])c2Cl)cc1 [3-Chloro compound, 3-chloro-4-(4-methylphenyl)furoxan, reference compound]
  Nitric oxide-releasing rate: 16.7%

## Cc1ccc(-c2c(F)no[n+]2[O-])cc1 [4-Fluoro compound, 4-fluoro-3-(4-methylphenyl)furoxan]
  Nitric oxide-releasing rate: 2.5%
  nitric oxide-releasing ability (in words): almost no nitric oxide-releasing ability
  3 - X/4 - X (NO-releasing rate of 3-halofuroxan/NO-releasing rate of 4-halofuroxan): 14.7 times

## Cc1ccc(-c2c(Cl)no[n+]2[O-])cc1 [4-Chloro compound, 4-chloro-3-(4-methylphenyl)furoxan, reference compound]
  Nitric oxide-releasing rate: 4.2%
  3 - X/4 - X (NO-releasing rate of 3-halofuroxan/NO-releasing rate of 4-halofuroxan): 4.0 times
